The target of experiment [1] is T1, system Xc^− (Homo sapiens, UniProt Q9UPY5).
T1 sequence (Q9UPY5 1-501): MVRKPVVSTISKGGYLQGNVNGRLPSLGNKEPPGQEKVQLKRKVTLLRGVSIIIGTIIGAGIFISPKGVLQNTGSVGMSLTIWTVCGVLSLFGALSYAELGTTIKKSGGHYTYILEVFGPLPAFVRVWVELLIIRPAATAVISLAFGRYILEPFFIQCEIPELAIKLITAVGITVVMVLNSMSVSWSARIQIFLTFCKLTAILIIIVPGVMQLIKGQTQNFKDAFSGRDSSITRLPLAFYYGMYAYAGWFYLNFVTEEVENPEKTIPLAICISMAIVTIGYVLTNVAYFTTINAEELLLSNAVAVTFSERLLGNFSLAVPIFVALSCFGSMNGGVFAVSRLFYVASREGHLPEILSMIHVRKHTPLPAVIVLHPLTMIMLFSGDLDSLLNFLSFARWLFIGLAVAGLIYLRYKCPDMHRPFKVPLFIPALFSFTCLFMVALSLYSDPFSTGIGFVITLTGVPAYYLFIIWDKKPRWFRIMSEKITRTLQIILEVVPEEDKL
T1 sequence (P08195 1-529 partner): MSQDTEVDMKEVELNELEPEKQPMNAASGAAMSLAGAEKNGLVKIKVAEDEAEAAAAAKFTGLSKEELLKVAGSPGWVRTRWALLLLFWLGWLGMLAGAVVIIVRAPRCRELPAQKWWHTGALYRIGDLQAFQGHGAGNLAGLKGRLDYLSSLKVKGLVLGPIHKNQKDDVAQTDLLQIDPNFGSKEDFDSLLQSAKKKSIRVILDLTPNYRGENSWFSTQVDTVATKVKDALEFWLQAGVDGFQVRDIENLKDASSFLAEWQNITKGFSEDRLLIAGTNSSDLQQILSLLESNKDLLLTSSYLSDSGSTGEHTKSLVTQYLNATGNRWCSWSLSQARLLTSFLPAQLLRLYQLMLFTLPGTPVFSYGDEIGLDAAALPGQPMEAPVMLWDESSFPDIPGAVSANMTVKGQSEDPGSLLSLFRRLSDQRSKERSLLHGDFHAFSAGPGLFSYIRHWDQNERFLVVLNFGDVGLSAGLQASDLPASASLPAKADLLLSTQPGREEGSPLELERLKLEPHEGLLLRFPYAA
The experiment in a line: [^14C]L-Cystine uptake assay. It counts as cell-based. The settings on record: H4 cells, sodium-free HEPES buffer, 0.5 μM L-[14C]Cystine and 4.5 μM L-Cystine, 1 hour at 37° C.; read-out: pIC50 [^14C] L-Cystine uptake assay (converted). Also on record: endogenous in cells; host or cells: H4 cells. In short, it runs like this: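 Compound effect is given as pIC50, taken between controls of 1% DMSO and 50 μM Erastin. Human H4 cells were pretreated 15 min with compound in sodium-free buffer, then took up 0.5 μM [14C]cystine with 4.5 μM cold cystine for 1 hour at 37° C, read by scintillation proximity counting.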

In experiment [2] the target is T1, system Xc^−. The experiment in a line: Cystine-induced glutamate release assay. Format: cell-based. Also on record: endogenous in cells; host or cells: H4 cells. Conditions: H4 cells, sodium-free HEPES buffer, 50 μM L-Cystine, 2 hours, Amplex Red glutamate readout; read-out: pIC50 Cystine-induced glutamate release assay (converted). Summed up:
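IC50 (reported as pIC50) normalized to DMSO 1% and Erastin 50 μM controls, from Amplex Red fluorescence of glutamate exported into supernatant. H4 cells were washed into sodium-free buffer to exclude EAAT transport, then given compound with 50 μM L-cystine for 2 h in the incubator.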

Each structure is given as a SMILES string.

Regarding `Cc1cc2c(cn1)N(CC(=O)Nc1ccc(C(F)(F)F)cc1)C(=O)Cc1ccccc1-2` [#29, 2-(2-methyl-6-oxo-7H-pyrido[3,4-d] [3]benzazepin-5-yl)-N-[4-(trifluoro-methyl)phenyl] acetamide], the IC50 in experiment [1] and in experiment [2] was 100 to 501 nM throughout.

`O=C(CN1C(=O)Cc2ncccc2-c2c1ccnc2Cl)Nc1ccc(C(F)(F)F)cc1` [#53, 2-(3-chloro-9-oxo-4,8,12-triazatricyclo [9.4.0.0^2,7]pentadeca-1(11),2(7),3,5,12,14-hexaen-8-yl)-N-[4-(trifluoromethyl)phen-yl]acetamide]: the values for the IC50 in experiment [1] and in experiment [2] were 39.8 to 100 nM and 100 to 501 nM, respectively.

For `Cc1cc2c(c(F)n1)-c1cccnc1[C@@H](C)C(=O)N2CC(=O)Nc1ccc2c(c1)nnn2C` [#147, 2-[(10R)-3-fluoro-5,10-dimethyl-9-oxo-4,8,12-triazatricyclo[9.4.0.0^2,7]pentadeca-1(11),2(7),3,5,12,14-hexaen-8-yl]-N-(1-methylbenzotriazol-5-yl)acetamide], the IC50 is 100 to 501 nM in experiment [1] and 39.8 to 100 nM in experiment [2].

For the molecule `O=C(CN1C(=O)C(O)c2ncc(F)cc2-c2c(F)cc(F)cc21)Nc1ccc(Cl)c(F)c1` (single isomer, unassigned) [#317, N-(4-chloro-3-fluoro-phenyl)-2-[2,9,11-trifluoro-5-hydroxy-6-oxo-5H-pyrido[2,3-d][1]benzazepin-7-yl]acetamide], the figures for the IC50 in experiment [1] and in experiment [2] were 15.8 to 39.8 nM and less than 15.8 nM, respectively.

As for `COc1cc2c(c(Cl)n1)-c1cccnc1C(C)C(=O)N2CC(=O)Nc1ccc(C(F)F)cc1` (single isomer, unassigned) [#411, 2-(3-chloro-5-methoxy-10-methyl-9-oxo-4,8,12-triazatricyclo[9.4.0.0^2,7]pentadeca-1(11),2(7),3,5,12,14-hexaen-8-yl]-N-[4-(difluoromethyl)phenyl)acetamide], the IC50 in experiment [1] and in experiment [2] was less than 15.8 nM in each case.

Turning to `Cc1cc2c(c(F)n1)-c1cccnc1C(CO)C(=O)N2CC(=O)Nc1ccc(C(F)F)cc1` (single isomer, unassigned) [#222, Enantiomer (10S) or (10R) of N-[4-(difluoromethyl)phenyl]-2-[3-fluoro-10-(hydroxymethyl)-5-methyl-9-oxo-4,8,12-triazatricyclo[9.4.0.0^2,7]pentadeca-1(15),2(7),3,5,11,13-hexaen-8-yl]acetamide], the IC50 in experiment [1] was 39.8 to 100 nM; in experiment [2], 15.8 to 39.8 nM.

For `Cc1cc2c(c(=O)o1)-c1cccnc1C(C)C(=O)N2CC(=O)Nc1ccc(C(F)F)cc1` (single isomer, unassigned) [#360, N-[4-(difluoromethyl)phenyl]-2-[5,10-dimethyl-3,9-dioxo-4-oxa-8,12-diazatricyclo[9.4.0.0^2,7]pentadeca-1(15),2(7),5,11,13-pentaen-8-yl]acetamide], the IC50 in experiment [1] was 39.8 to 100 nM; in experiment [2], 15.8 to 39.8 nM.

As to `Cc1cc2c(c(F)n1)-c1ccnnc1CC(=O)N2CC(=O)Nc1ccc(C(F)(F)F)cc1` [#110, 2-(3-fluoro-5-methyl-9-oxo-4,8,12,13-tetrazatricyclo[9.4.0.0^2,7]pentadeca-1(11),2,4,6,12,14-hexaen-8-yl)-N-[4-(trifluoromethyl)phenyl]acetamide], the IC50 is 39.8 to 100 nM in experiment [1] and 100 to 501 nM in experiment [2].

With `Cc1cc2c(c(F)n1)-c1cc(F)cnc1C(C)C(=O)N2CC(=O)Nc1ccc(C(F)(F)F)nc1` (single isomer, unassigned) [#262, 2-[3,14-difluoro-5,10-dimethyl-9-oxo-4,8,12-triazatricyclo[9.4.0.0^2,7]pentadeca-1(11),2(7),3,5,12,14-hexaen-8-yl]-N-[6-(trifluoromethyl)-3-pyridyl]acetamide], the IC50 in experiment [1] and in experiment [2] was 15.8 to 39.8 nM throughout.

`Cc1cc2c(cn1)-c1cc(F)cnc1C(C)C(=O)N2CC(=O)Nc1ccc(Cl)c(F)c1` (single isomer, unassigned) [#327, N-(4-chloro-3-fluoro-phenyl)-2-[14-fluoro-5,10-dimethyl-9-oxo-4,8,12-triazatricyclo[9.4.0.0^2,7]pentadeca-1(15),2,4,6,11,13-hexaen-8-yl]acetamide]: the IC50 in experiment [1] and in experiment [2] was less than 15.8 nM in each case.

For `CC1C(=O)N(CC(=O)Nc2ccc(Cl)c(F)c2)c2cc(C(F)F)ncc2-c2cccnc21` (single isomer, unassigned) [#342, N-(4-chloro-3-fluoro-phenyl)-2-[5-(difluoromethyl)-10-methyl-9-oxo-4,8,12-triazatricyclo[9.4.0.0^2,7]pentadeca-1(15),2,4,6,11,13-hexaen-8-yl]acetamide], the IC50 in experiment [1] and in experiment [2] was less than 15.8 nM each time.

For the molecule `Cc1cc2c(c(Cl)n1)-c1cccnc1C(O)C(=O)N2CC(=O)Nc1ccc(C(F)(F)F)cc1` (stereo not drawn) [#379, 2-(3-chloro-10-hydroxy-5-methyl-9-oxo-4,8,12-triazatricyclo[9.4.0.0^2,7]pentadeca-1(15),2(7),3,5,11,13-hexaen-8-yl)-N-[4-(trifluoromethyl)phenyl]acetamide], the results for the IC50 in experiment [1] and in experiment [2] were less than 15.8 nM and 15.8 to 39.8 nM, respectively.

On to `Cc1cc2c(c(F)n1)-c1cccnc1[C@@H](C)C(=O)N2CC(=O)Nc1ccc(C(F)F)c(F)c1` (single isomer, unassigned) [#235], for which the IC50 in experiment [1] and in experiment [2] was less than 15.8 nM throughout.

On to `Cc1cc2c(c(F)n1)-c1cc(F)cnc1C(C)C(=O)N2CC(=O)Nc1ccc(C(C)(F)F)cc1` (single isomer, unassigned) [#263, 2-[3,14-difluoro-5,10-dimethyl-9-oxo-4,8,12-triazatricyclo[9.4.0.0^2,7]pentadeca-1(15),2,4,6,11,13-hexaen-8-yl]-N-[4-(1,1-difluoroethyl)phenyl]acetamide], for which the IC50 in experiment [1] and in experiment [2] was less than 15.8 nM each time.

On to `CC1C(=O)N(CC(=O)Nc2ccc(Cl)c(F)c2)c2cc(CO)c(=O)n(C)c2-c2ccccc21` (stereo not drawn) [#363, N-(4-chloro-3-fluoro-phenyl)-2-[3-(hydroxymethyl)-1,7-dimethyl-2,6-dioxo-7H-pyrido[3,2-d][3]benzazepin-5-yl]acetamide], for which the IC50 in experiment [1] is 39.8 to 100 nM; in experiment [2] it was 15.8 to 39.8 nM.

Regarding `Cc1cc2c(c(F)n1)-c1cccnc1C(C)C(=O)N2CC(=O)Nc1ccc(C(F)F)cc1` (stereo not drawn) [#132, N-[4-(difluoromethyl)phenyl]-2-(3-fluoro-5,10-dimethyl-9-oxo-4,8,12-triazatricyclo[9.4.0.0^2,7]pentadeca-1(11),2(7),3,5,12,14-hexaen-8-yl)acetamide], the figures for the IC50 in experiment [1] and in experiment [2] were less than 15.8 nM and 39.8 to 100 nM, respectively.

Regarding `Cc1cc2c(c(F)n1)-c1cnccc1C(C)C(=O)N2CC(=O)Nc1ccc(C(F)(F)F)cc1` (stereo not drawn) [#180, 2-(3-fluoro-5,10-dimethyl-9-oxo-4,8,14-triazatricyclo[9.4.0.0^2,7]pentadeca-1(11),2(7),3,5,12,14-hexaen-8-yl)-N-[4-(trifluoromethyl)phenyl]acetamide], the IC50 in experiment [1] is 15.8 to 39.8 nM; in experiment [2], 39.8 to 100 nM.

Regarding `Cc1cc2c(c(F)n1)-c1sccc1CC(=O)N2CC(=O)Nc1ccc(C(F)(F)F)cc1` [#42, 2-(14-fluoro-12-meth-yl-8-oxo-3-thia-9,13-diazatricyclo[8.4.0.0^2,6]tetradeca-1(10),2(6), 4,11,13-pentaen-9-yl)-N-[4-(trifluorometh-yl)phenyl]acetamide], the IC50 in experiment [1] and in experiment [2] was 39.8 to 100 nM in each case.
